Reference: the supplement of paper PMC11208160

Test: recombinant UMI read abundance after kanamycin selection (control-corrected) (log10(CPM+1)); higher = more efficient recombination; extreme values may be limits of the assay; sequences stand for … in AGTGCAGAGAAAATCGGCCAGTTTTCTCTGCCTGCAGTCCGCATGCCGTGGGACCCCTTGGGTTCTAACCTGTTGCCTAGATTTATGCAGCGGACTGCCTTTCTCCCAAAGTGATAAACCGG…AGGTTGGTTTCACT; site = the 11-nt donor
Protocol: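 Pooled E. coli donor-specificity screen for the IS621 bridge recombinase. Each library member carries a reprogrammed 11-nt donor and a full-length LE bridge RNA expressed in cis from the natural promoter, with a paired donor-binding loop (8-nt LDG + 4-nt RDG) and a target-binding loop fixed to T5. It is co-electroporated with a T5 target plasmid; recombinase is induced with 0.07 mM IPTG and recombinants are selected on kanamycin. UMIs are counted as CPM, averaged over two biological replicates and corrected by the unselected control. Molecule = full bridge RNA written as DNA, built from the T5 scaffold: LDG = donor specificity nt 1-8, RDG = reverse complement of nt 8-11.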
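Also: IS621 bridge recombinase in Escherichia coli cells against a fixed T5 target plasmid.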

Sequence | recombinant UMI read abundance (log10)
ACGAAGACATGGACCGGTTTTCCCGGTAATCCGTATTTGCA (site AGGAAGACTTG) | 1.81
ACGAAGACATGGACCGGTTTTCCCGGTAATCCGTATTTGCA (site ATGAAGACTTG) | 2.04
ACGAAGACATGGACCGGTTTTCCCGGTAATCCGTATTTGCG (site ACGAAGACTCG) | 2.77
ACGAAGACATGGACCGGTTTTCCCGGTAATCCGTATTTGCG (site AGGAAGACTTG) | 0
ACGAAGTCATGGACCGGTTTTCCCGGTAATCCGTATTTGGG (site ACGAAGTCTCC) | 0.574
ACGAATTCATGGACCGGTTTTCCCGGTAATCCGTATTTGCG (site ACGAATTCTCG) | 2.06
ACGACTTCATGGACCGGTTTTCCCGGTAATCCGTATTTGTT (site ACGACTTCTAA) | 1.23
ACGAGAACATGGACCGGTTTTCCCGGTAATCCGTATTTGTT (site ACGAGAACTAA) | 2.8
ACGCAACCATGGACCGGTTTTCCCGGTAATCCGTATTTGAA (site ACGCAACCTTT) | 0
ACGCGGACATGGACCGGTTTTCCCGGTAATCCGTATTTGTG (site ACGCGGACTCA) | 1.74
ACGCGTCCATGGACCGGTTTTCCCGGTAATCCGTATTTGTG (site ACGCGTCCTCA) | 0.257
ACGCGTGCATGGACCGGTTTTCCCGGTAATCCGTATTTGAC (site ACGCGTGCTGT) | 2.96
ACGCTATCATGGACCGGTTTTCCCGGTAATCCGTATTTGCA (site ACAGTATCTTG) | 1.92
ACGCTATCATGGACCGGTTTTCCCGGTAATCCGTATTTGCA (site ACGCTATCTTG) | 2.75
ACGGACACATGGACCGGTTTTCCCGGTAATCCGTATTTGGT (site ACGGACACTAC) | 1.82
ACGGCCTCATGGACCGGTTTTCCCGGTAATCCGTATTTGGG (site ACGGCCTCTCC) | 0.0343
ACGGGCGCATGGACCGGTTTTCCCGGTAATCCGTATTTGAG (site ACGGGCGCTCT) | 1.15
ACGGTATCATGGACCGGTTTTCCCGGTAATCCGTATTTGCA (site ACAGTATCTTG) | 2.96
ACGGTATCATGGACCGGTTTTCCCGGTAATCCGTATTTGCA (site ACCGTATCTTG) | 1.92
ACGGTATCATGGACCGGTTTTCCCGGTAATCCGTATTTGCA (site ACGGTATCTTG) | 3.16
ACGGTATCATGGACCGGTTTTCCCGGTAATCCGTATTTGCA (site ACTGTATCTTG) | 2.32
ACGGTTTCATGGACCGGTTTTCCCGGTAATCCGTATTTGCA (site ACAGTATCTTG) | 2.71
ACGGTTTCATGGACCGGTTTTCCCGGTAATCCGTATTTGCA (site ACGGTTTCTTG) | 2.34
ACGTCCTCATGGACCGGTTTTCCCGGTAATCCGTATTTGGT (site ACGTCCTCTAC) | 1.51

Sequence | recombinant UMI read abundance (log10)
ACGTGTGCATGGACCGGTTTTCCCGGTAATCCGTATTTGGT (site ACGTGTGCTAC) | 1.99
ACTAGAACATGGACCGGTTTTCCCGGTAATCCGTATTTGAG (site AATAGAACTCT) | 0.839
ACTAGAACATGGACCGGTTTTCCCGGTAATCCGTATTTGAG (site ACAAGAACTCT) | 1.26
ACTAGAACATGGACCGGTTTTCCCGGTAATCCGTATTTGAG (site ACCAGAACTCT) | 1.23
ACTAGAACATGGACCGGTTTTCCCGGTAATCCGTATTTGAG (site ACGAGAACTCT) | 0.424
ACTAGAACATGGACCGGTTTTCCCGGTAATCCGTATTTGAG (site ACTAAAACTCT) | 0.908
ACTAGAACATGGACCGGTTTTCCCGGTAATCCGTATTTGAG (site ACTACAACTCT) | 0.383
ACTAGAACATGGACCGGTTTTCCCGGTAATCCGTATTTGAG (site ACTAGAACTAT) | 0
ACTAGAACATGGACCGGTTTTCCCGGTAATCCGTATTTGAG (site ACTAGAACTCA) | 0.00396
ACTAGAACATGGACCGGTTTTCCCGGTAATCCGTATTTGAG (site ACTAGAACTCC) | 0.0223
ACTAGAACATGGACCGGTTTTCCCGGTAATCCGTATTTGAG (site ACTAGAACTCG) | 0
ACTAGAACATGGACCGGTTTTCCCGGTAATCCGTATTTGAG (site ACTAGAACTCT) | 1.72
ACTAGAACATGGACCGGTTTTCCCGGTAATCCGTATTTGAG (site ACTAGAACTGT) | 0
ACTAGAACATGGACCGGTTTTCCCGGTAATCCGTATTTGAG (site ACTAGAACTTT) | 0.286
ACTAGAACATGGACCGGTTTTCCCGGTAATCCGTATTTGAG (site ACTAGACCTCT) | 0.00567
ACTAGAACATGGACCGGTTTTCCCGGTAATCCGTATTTGAG (site ACTAGAGCTCT) | 0.324
ACTAGAACATGGACCGGTTTTCCCGGTAATCCGTATTTGAG (site ACTAGATCTCT) | 1.72
ACTAGAACATGGACCGGTTTTCCCGGTAATCCGTATTTGAG (site ACTAGCACTCT) | 0.0125
ACTAGAACATGGACCGGTTTTCCCGGTAATCCGTATTTGAG (site ACTAGGACTCT) | 0.407
ACTAGAACATGGACCGGTTTTCCCGGTAATCCGTATTTGAG (site ACTAGTACTCT) | 0.0383
ACTAGAACATGGACCGGTTTTCCCGGTAATCCGTATTTGAG (site ACTATAACTCT) | 1.22
ACTAGAACATGGACCGGTTTTCCCGGTAATCCGTATTTGAG (site ACTCGAACTCT) | 0.115
ACTAGAACATGGACCGGTTTTCCCGGTAATCCGTATTTGAG (site ACTGGAACTCT) | 0.3
ACTAGAACATGGACCGGTTTTCCCGGTAATCCGTATTTGAG (site ACTTGAACTCT) | 0.118

Sequence | recombinant UMI read abundance (log10)
ACTAGAACATGGACCGGTTTTCCCGGTAATCCGTATTTGAG (site AGTAGAACTCT) | 0.227
ACTAGAACATGGACCGGTTTTCCCGGTAATCCGTATTTGAG (site ATTAGAACTCT) | 1.34
ACTAGAACATGGACCGGTTTTCCCGGTAATCCGTATTTGAG (site CCTAGAACTCT) | 1.33
ACTAGAACATGGACCGGTTTTCCCGGTAATCCGTATTTGAG (site GCTAGAACTCT) | 0.34
ACTAGAACATGGACCGGTTTTCCCGGTAATCCGTATTTGAG (site TCTAGAACTCT) | 0.854
ACTAGAACATGGACCGGTTTTCCCGGTAATCCGTATTTGCG (site ACTAGAACTCA) | 0.0146
ACTAGAACATGGACCGGTTTTCCCGGTAATCCGTATTTGCG (site ACTAGAACTCC) | 0.0147
ACTAGAACATGGACCGGTTTTCCCGGTAATCCGTATTTGCG (site ACTAGAACTCG) | 2.19
ACTAGAACATGGACCGGTTTTCCCGGTAATCCGTATTTGCG (site ACTAGAACTCT) | 0.412
ACTAGACCATGGACCGGTTTTCCCGGTAATCCGTATTTGGA (site ACTAGACCTTC) | 0.014
ACTAGAGCATGGACCGGTTTTCCCGGTAATCCGTATTTGAG (site ACTAGAACTCT) | 1.52
ACTAGAGCATGGACCGGTTTTCCCGGTAATCCGTATTTGAG (site ACTAGACCTCT) | 0
ACTAGAGCATGGACCGGTTTTCCCGGTAATCCGTATTTGAG (site ACTAGAGCTCT) | 2.15
ACTAGAGCATGGACCGGTTTTCCCGGTAATCCGTATTTGAG (site ACTAGATCTCT) | 1.65
ACTAGAGCATGGACCGGTTTTCCCGGTAATCCGTATTTGCA (site ACTAGAGCTTG) | 2.15
ACTAGCGCATGGACCGGTTTTCCCGGTAATCCGTATTTGGT (site ACTAGAGCTAC) | 0.428
ACTAGCGCATGGACCGGTTTTCCCGGTAATCCGTATTTGGT (site ACTAGCGCTAC) | 1.86
ACTAGCGCATGGACCGGTTTTCCCGGTAATCCGTATTTGGT (site ACTAGGGCTAC) | 0.00433
ACTAGCGCATGGACCGGTTTTCCCGGTAATCCGTATTTGGT (site ACTAGTGCTAC) | 0.00815
ACTAGGACATGGACCGGTTTTCCCGGTAATCCGTATTTGAG (site ACTAGAACTCT) | 2.04
ACTAGGACATGGACCGGTTTTCCCGGTAATCCGTATTTGAG (site ACTAGCACTCT) | 0.00393
ACTAGGACATGGACCGGTTTTCCCGGTAATCCGTATTTGAG (site ACTAGGACTCT) | 2.15
ACTAGGACATGGACCGGTTTTCCCGGTAATCCGTATTTGAG (site ACTAGTACTCT) | 0.226
ACTAGGGCATGGACCGGTTTTCCCGGTAATCCGTATTTGGT (site ACTAGAGCTAC) | 1.2
